# Assay results as given in patent US20190079094A1, “SUBCELLULAR LOCALIZATION OF TARGET ANALYTES” (Beckman Coulter, Inc., priority 2016, published 2019).
# Entries after “also recorded” stand apart in the source; their conditions may differ.
# Experiments:
# [1] = system: T cells and monocytes in whole blood; experiment: Digitonin and TX-100 titration on whole blood, flow cytometry (CytoCalcein Violet loss, HDAC1 staining); format: cell-based; conditions: for concentration at which the nucleus is also permeabilized: peaked HDAC1 staining
# From the text: (§1) FIGS. 2A and 2B. Digitonin and TX-100 Titrations to Determine the Optimal Concentrations for Cytoplasmic vs. Nuclear Membrane Permeabilization. A) The cytoplasmic membrane in whole blood is fully permeabilized around 0.031% Digitonin, while the nucleus is also permeabilized around 0.5% Digitonin or 0.125% TX-100. B) The cytoplasmic membrane in PBMCs is fully permeabilized around 0.0016% Digitonin, while the nucleus is also permeabilized around 0.05% Digitonin or 0.025% TX-100. In this figure, the reduction in Calcein signal is indicative of permeabilization of the plasma membrane, while the peaked HDAC1 staining indicates complete nuclear permeabilization. The ledge that forms with HDAC1 prior to complete lysis is due to lysis of the endoplasmic reticulum, which also contains HDAC1.
# (§2) FIG. 2 is a comparison of the efficiency of cytoplasmic vs. nuclear permeabilization of T cells and monocytes by different concentrations of Digitonin or TX-100. FIG. 2A is a titration performed on whole blood, while FIG. 2B is a titration performed on PBMCs. In both cases, the samples were first preloaded for 1 hour with 1 μM CytoCalcein Violet (AAT Bioquest, Inc) in a CO2-regulated 37° C. incubator. After 1 hour, the samples were fixed for 10 min with 4% PFA, and then incubated for 30 min at RT with the different concentrations of detergents diluted in diH2O, at a 1:5 ratio with the sample mixture. The samples were then washed and stained with anti-HDAC1-FITC (Abcam, Plc), washed again, and finally read on a Gallios flow cytometer (BCI). In this figure, cytoplasmic lysis is indicated by the loss of CytoCalcein Violet signal as it is released from the cell once the plasma membrane is permeabilized, while nuclear lysis is indicated by the increased HDAC1 signal as the nuclear membrane is permeabilized. In the case of Digitonin lysis, there is a ledge of HDAC1 staining once the plasma membrane is lysed and prior to full nuclear lysis; this is indicative of lysis of the endoplasmic reticulum, which also contains a repository of HDAC1. In whole blood, there is a working range for Digitonin between roughly 0.015% and 0.125%, where the plasma membrane is lysed, but the nucleus is not. For PBMCs, this range is roughly between 0.001% and 0.0125%.
# [2] = system: T cells and monocytes in whole blood; experiment: Optimal lysis parameters for whole blood in MES-buffered solution (HSP60, Lamin A/C); format: cell-based; conditions: 5% fixative
# From the text: FIGS. 5A and 5B. Cytoplasmic vs. Nuclear Membrane Permeabilization in a Whole Blood Sample using the Optimal Buffer Compositions. A) The CD45 vs. SS and FS vs. SS profiles of the samples after lysis. B) The degree of mitochondrial vs. nuclear membrane permeabilization in T cells. C) The degree of mitochondrial vs. nuclear membrane permeabilization in Monocytes. All of the detergent concentrations used in this experiment fully permeabilized the plasma membrane, while HSP60 and Lamin A/C indicate the degree of mitochondrial inner membrane and nuclear membrane permeabilization, respectively.
# FIG. 5 indicates the optimal lysis parameters for whole blood, including modified buffer conditions in order to improve RBC lysis. […] In order to improve RBC lysis, the solution was ultimately buffered with MES at a pH between 4.5-6.5 (such as a pH of 5.5), which also allowed the salt concentration to be increased to physiological levels. This further improved the scatter profiles of the WBCs, decreased the time required for complete lysis to approximately 15 minutes, and improved the RBC lysis efficiency to the point that the buffers still work well if the fixation time is extended well beyond protocol (>20 min). At the same time, the fixative concentration was increased to 5% due to improved performance. In FIG. 5A, the scatter profiles for the optimal lysis parameters can be seen, where 0.0625% Digitonin is optimal for cytoplasmic membrane permeabilization, and either 0.5% Digitonin or 0.25% TX-100 are optimal for whole-cell membrane permeabilization. […] In both cases, the permeabilization profiles can be seen to be consistent with the defined optimal detergent concentrations.
# MCF-7 cells = experiment: Modified protocol with MCF-7 cells preloaded with CytoCalcein Violet; format: cell-based, human; conditions: for concentration permeabilizing only the plasma (cytoplasmic) membrane: loss of CytoCalcein Violet
# Procedure: FIG. 4. Modified Protocol to Assess the Permeabilization of the Plasma Membrane with MCF-7 Cells. The cells were preloaded with CytoCalcein Violet, and cytoplasmic membrane permeabilization is indicated by the loss of this signal. In this experiment, 0.025% Digitonin or TX-100 permeabilized only the cytoplasm, while 0.25% of either fully permeabilized the both cytoplasmic and nuclear membranes.
# In this experiment, after the cells had been plated for 24 hours, they were preloaded for 1 hour with 1 μM CytoCalcein Violet and then processed as indicated in FIG. 3. When the samples were ready for cover-slipping, mounting medium without DAPI was used. Images were captured on a Zeiss Axioskop 2 Plus microscope together with a 63× oil-immersion lens. In this figure, MCF-7 cells that were not permeabilized can be seen to be loaded with CytoCalcein Violet, and this staining is lost once the plasma membrane is permeabilized. […] In this experiment, 0.025% of both Digitonin and TX-100 can be seen to permeabilize the plasma membrane, while 0.25% of both can be seen to permeabilize the whole cell. This modified protocol was used for subsequent testing of the performance of the different detergents with whole blood and PBMCs by flow cytometry, including for the results in FIG. 2.
# [3] = system: Lymphocytes and Monocytes in whole blood; experiment: Performance of detergents with whole blood (alternative approaches); format: cell-based; conditions: for concentration at which surface markers are lost and cells disintegrate: Buffer 2 upper bound
# Procedure: An exemplary kit is composed of two separate buffers for whole-blood mononuclear cells (i.e., lymphocytes+monocytes): 1) The first buffer is to permeabilize the cytoplasm, including the ER, the endosomal system, and the outer mitochondrial membrane, while 2) the second buffer is to permeabilize everything permeabilized by the first buffer, plus the nucleus (and, in some embodiments, the inner mitochondrial matrix). Buffer 1 (Cytoplasm) may be composed of: 1-100 mM MES pH 4.5-6.5, 0-274 mM NaCl, 0-5.4 mM KCl, and 0.01-0.15% Digitonin. The optimal detergent concentration for Buffer 1 is between […] Digitonin, where the cytoplasm is lysed but the nucleus is not. Buffer 2 (Whole Cell) may be composed of: 1-100 mM MES pH 4.5-6.5, 0-274 mM NaCl, 0-5.4 mM KCl, and >0.01% Digitonin or >0.0125% Triton X-100. The optimal detergent concentration for Buffer 2 depends on the sample type, with the upper bound limited by the loss of surface markers and the disintegration of cells that occurs around 2% for both.
# The methods of the invention rely on different detergents or detergent concentrations in order to gently lyse the cytoplasm plus as many cytoplasmic components as possible in one tube, and the whole cell including the nucleus in the other tube. For this reason, a variety of detergents will work to accomplish this task. Some are as follows, with reference to their performance with whole blood: […]
# [4] = system: T cells and monocytes in PBMCs; experiment: Digitonin and TX-100 titration on PBMCs, flow cytometry (CytoCalcein Violet loss, HDAC1 staining); format: cell-based; conditions: for concentration at which the nucleus is also permeabilized: peaked HDAC1 staining
# From the text: as §1, §2
# [5] = system: CREB, RelA and ERK phosphorylation in monocytes; experiment: Stimulation of monocytes with LPS or GM-CSF, cytoplasmic vs. nuclear signaling; format: cell-based; conditions: 1 μg/mL LPS or 100 ng/mL GM-CSF
# Procedure: FIG. 8. Differential Signaling in Monocytes Induced by 1 μg/mL LPS vs. 100 ng/mL GM-CSF. A) Both LPS and GM-CSF induced CREB phosphorylation at S133, accumulating maximally in the nucleus by 10 min. B) LPS stimulation induced RelA phosphorylation maximally by 10 min in both the cytoplasm and nucleus, though predominantly in the nucleus. C) Both LPS and GM-CSF stimulated ERK phosphorylation primarily in the cytoplasm, maximally by 5 min for GM-CSF and 10 min for LPS.
# The protocol for processing whole blood samples is as follows (see FIG. 1 for a workflow): 1) The sample is first mixed 1:1 with fixative, vortexed, and then incubated for 10 minutes. An extra control tube is included for each buffer, which is stained with all antibodies except for the specific signaling or target antibodies being tested in order to subtract the background signal. The background control may also be labeled with isotype-control antibodies for more precise determination of non-specific binding, especially in cells that have characteristically high non-specific binding, such as neutrophils. For indirect antibody labeling, omitting the primary antibody, but still utilizing the secondary antibody, is a common method for determining the degree of non-specific background signal attributable to the secondary antibody, which is typically higher than the direct conjugates of target antibodies. […] 6) Once stained, the samples are again washed 2× with PBS or wash buffer, resuspended in PBS+0.5% PFA, and read on a flow cytometer.
# After data acquisition, the samples are gated, compensated, and analyzed as standard flow cytometry samples. […] For example, if staining for the subcellular distribution of FoxP3, where the Background MFIs for the Cytoplasm and Whole Cell are 1.5 and the raw FoxP3 signal is 3.5 and 31.5 for the Cytoplasm and Whole Cell, respectively, then the Cytoplasmic MFI would be calculated to be 2 (i.e., 3.5 (raw)−1.5 (background)=2) and the Nuclear MFI would be calculated to be 28 (i.e., 31.5 (raw)−1.5 (background)−2 (Cytoplasm)=28). […]
# [6] = Precipitation of detergent from solution at reduced pH; format: physicochemical; conditions: regardless of the concentration
# From the text: However, the performance of CHAPS decreases at lower pHs, and Sodium Deoxycholate immediately precipitates out of solution at pHs lower than ˜7.0 regardless of the concentration. Therefore, these may be useful for PBMCs or cell lines where a reduced pH is not necessary, but not for whole blood.
compound,measurement,setting,value
C[C@@H]1CC[C@@]2(OC1)O[C@H]1[C@@H](O)[C@H]3[C@@H]4CC[C@H]5C[C@@H](O[C@@H]6O[C@H](CO)[C@H](O[C@@H]7O[C@H](CO)[C@@H](O)[C@H](O[C@@H]8OC[C@@H](O)[C@H](O)[C@H]8O)[C@H]7O[C@@H]7O[C@H](CO)[C@H](O)[C@H](O[C@@H]8O[C@H](CO)[C@@H](O)[C@H](O)[C@H]8O)[C@H]7O)[C@H](O)[C@H]6O)[C@H](O)C[C@]5(C)[C@H]4CC[C@]3(C)[C@H]1[C@@H]2C [Digitonin],concentration for complete lysis of the cells,[1],0.25%
same,concentration at which the nucleus is also permeabilized,[1],around 0.5%
same,concentration at which the cytoplasmic membrane is fully permeabilized,[1]; reduction in Calcein signal,around 0.031%
same,optimal concentration for cytoplasmic membrane permeabilization,[2],0.0625%
same,optimal concentration for whole-cell membrane permeabilization,[2],0.5%
same,concentration permeabilizing the whole cell (cytoplasmic and nuclear membranes),MCF-7 cells,0.25%
same,concentration permeabilizing only the plasma (cytoplasmic) membrane,MCF-7 cells,0.025%
same,concentration at which surface markers are lost and cells disintegrate,[3],around 2%
same,concentration for complete lysis of the cells,[4],0.025%
same,concentration at which the nucleus is also permeabilized,[4],around 0.05%
same,concentration at which the cytoplasmic membrane is fully permeabilized,[4]; reduction in Calcein signal,around 0.0016%
GM-CSF: cytokine activator reagent,time of peak RelA S536 phosphorylation,[5],did not stimulate RelA phosphorylation at S536
same,time of peak ERK phosphorylation (S202/T204),[5]; primarily cytoplasm,≤ 5 min
Octylphenoxypoly(ethylene-oxy)ethanol [NP-40],performance compared with TX-100,[3]; whole blood,performs equivalently to TX-100; also recorded: interchangeable with TX-100 for whole-cell permeabilization
Sodium Deoxycholate,pH below which the detergent immediately precipitates out of solution,[6],< 7.0
ethyoxylated octylphenol [TX-100],concentration for complete lysis of the cells,[1],0.125%
same,working range where the plasma membrane is lysed but the nucleus is not,[1],does not provide this working range
same,concentration at which the nucleus is also permeabilized,[1],~0.125%
same,optimal concentration for whole-cell membrane permeabilization,[2],0.25%
same,concentration permeabilizing the whole cell (cytoplasmic and nuclear membranes),MCF-7 cells,0.25%
same,concentration permeabilizing only the plasma (cytoplasmic) membrane,MCF-7 cells,0.025%
same,concentration at which surface markers are lost and cells disintegrate,[3],around 2%
same,concentration for complete lysis of the cells,[4],0.025%
same,concentration at which the nucleus is also permeabilized,[4],~0.025%
